{"source": "patent US20210340178A1", "about": "“NONAPEPTIDE PREVENTING INCREASED HYPERPERMEABILITY OF VASCULAR ENDOTHELIUM” (FEDERALNOYE GOSUDARSTVENNOE BUDGETNOE UCHREZHDENIE …, priority 2018, published 2021)", "key": {"[1]": {"tested_on": "EA.hy926 endothelial cell monolayer", "assay": "Thrombin-mediated FITC-dextran permeability through endothelial cell monolayer", "assay_type": "cell-based", "conditions": "peptide 100 μM, 60 min preincubation; thrombin 100 nM; 70 kDa FITC-dextran", "procedure": "FIG. 3. The thrombin-mediated FITC-dextran permeability through the EA.hy926 endothelial cell monolayer in the presence of myosin light chain kinase peptide inhibitors. Thrombin (100 nM) was added at 0 min, the cells were preincubated for 60 min with MLCK peptide inhibitors (100 μM). Data are presented as mean±SD, n=5. p<0.05 for all data points within the 20-180 min time course range as compared to the thrombin-stimulated control.\nEffects of the claimed peptide (PIK7), the prototype (PIK2), and the analogue (MLC11-19) on the endothelial permeability was assayed in a model of FITC-dextran diffusion through the endothelial monolayer as described in Example 3.\nCells were grown in 24-well plates (Greiner Bio-one, Austria) equipped with special inserts to form inner (upper) chambers with a porous bottom (the pore diameter of 0.4 μm, pore density of 10^8/cm^2) in DMEM until monolayer was formed (3-4 days). Successful monolayer was checked by measuring FITC-dextran diffusion for 1 hour through inserts with cell monolayers vs inserts without cells (‘blank’ inserts). Experiments were performed in triplicates when tight monolayers were formed. On the day of experiment, the cells were deprived for 1 h in DMEM supplemented with MLCK inhibitors or without inhibitors (control). After deprivation, FITC-dextran was added to the upper compartment to a final concentration of 0.05 mg/ml. In 30 and 60 min, a 10-μ1 aliquot was withdrawn from the lower compartment and mixed with 100 μl phosphate buffered saline pH 7.3 in a 96-well plate to estimate the endothelial monolayer baseline permeability. […] During the next 3 hrs, every 30 min, aliquots were taken from the lower compartment, and intensity of FITC fluorescence was measured using a Victor 3X plate reader (Perkin Elmer, USA) to plot the dynamics of the FITC fluorescence changes.\nAs shown, 100 nM thrombin induces the endothelial hyperpermeability response as reflected by an increase in 70 kDa FITC-dextran diffusion through the endothelial monolayer and an incremental increase in the fluorescence in the lower compartment of the diffusion chamber. […]"}, "[2]": {"assay": "Acute toxicity in mice, single injection", "assay_type": "in vivo", "conditions": "mouse, in vivo", "procedure": "(§1) The study was conducted in 82 BALB/c mice (both males and females, body weight 18-24 g) obtained from the animal facility of the Scientific Center for Biomedical Technologies of the Federal Medico-Biological Agency of the Russian Federation (SCBMT). The animals were certified and otherwise healthy. The animals were kept in T-3 cages (5-10 animals per cage) with artificial 12 hrs light-dark cycles and 16× per hour forced air ventilation, temperature of 20-22° C. and 50-65% humidity on wood chips sterilized by hot air. The animals had free access to drinking water and PK-120-1 mouse cubes (GOST P50258-92; Laboratorsnab LLC, Russia).\n(§2) PIK2 and PIK7 peptides were dissolved in water and administered to mice as a single intraperitoneal injection. The animals were followed for 14 days after peptide injections. An increasing dosage scheme was applied where each tested dose surpassed the previous dose by 50%. The lowest dose of the active substance was determined that caused animal death."}, "BALB/c mice": {"tested_on": "BALB/c mice", "assay": "Acute toxicity in mice, single injection", "assay_type": "in vivo", "procedure": "as §1, §2"}, "[3]": {"conditions": "rabbit, in vivo, iv", "experimental": "(§3) PIK2 dose of 5 mg/kg was calculated individually for each rabbit and administered into marginal ear vein in a final volume of 1.7-1.9 mL in sterile physiological saline. Stock concentration of the tested substance was 10 mg/mL.\n(§4) During the 24-hrs testing period, the overall health status and behavior were monitored (appetite, motion activity, hair coat condition).\n(§5) Before injection of test substances (baseline) and 4 hrs and 24 hrs after the injection, the following parameters were tested in whole venous blood samples (3.0-3.5 mL) collected from a marginal ear vein red blood cell (RBC) count, hematocrit, hemoglobin level, mean RBC volume, mean corpuscular hemoglobin, total leukocyte, lymphocyte, and granulocyte counts and their percentages, platelet count, and mean platelet volume. In parallel, the following biochemical parameters were measured in serum total protein, bilirubin, urea, creatinine, glucose, total cholesterol, triglycerides, and activities of alkaline phosphatase, lactate dehydrogenase, aspartate aminotransferase, and alanine aminotransferase. Blood cell count was performed using an Abacus junior vet (Austria) hematological cell counter; biochemical studies were performed using a Targa-2000 (Italy) instrument."}, "[4]": {"conditions": "cited from earlier work"}, "[5]": {"tested_on": "endothelial hyperpermeability", "conditions": "cited from earlier work"}, "lung edema in rats": {"tested_on": "lung edema in rats", "conditions": "cited from earlier work"}, "in vivo": {"assay": "in vivo", "conditions": "male, Chinchilla, rabbit, 5 mg/kg", "experimental": "as §3, §4, §5"}, "Chinchilla rabbits": {"tested_on": "Chinchilla rabbits", "assay": "Tolerance of a single intravenous injection in Chinchilla rabbits", "conditions": "i.v. 5 mg/kg", "experimental": "as §3, §4, §5"}, "[6]": {"target": "smooth-muscle myosin light-chain kinase", "conditions": "Hunt et al., 1989; cited from earlier work"}, "[7]": {"assay": "Peptide half-lives in human plasma in vitro (1H-NMR spectroscopy)", "assay_type": "in vitro ADME", "conditions": "human, plasma, 1H-NMR, 37° C., peptide 3 mg/ml; read-out: T1/2, half-life in human plasma in vitro", "procedure": "Whole blood (100 mL) was collected from healthy donors to 50-mL tubes containing 5 mL of a preservative (130 mM citrate in phosphate buffered saline (PBS), pH 7.4). The blood was incubated for 15-20 min at room temperature followed by centrifugation at 1500 g for 15 min at 18° C. The supernatants were transferred to clear tubes and centrifuged as above. Dry NaBr was added to the plasma (280 mg per 1 mL of plasma). After dissolution of NaBr, the plasma (approx. 30 mL) was transferred to centrifuge tubes (Type 45Ti rotor, Beckman, USA) and layered with 20 mL of a solution (specific mass of […]), which was prepared as follows—11.42 g of NaCl and 100 mg of ethylenediaminetetraacetic acid (EDTA) were dissolved in distilled water in a final volume of 1 L (pH 7.4) and 281.44 g of NaBr was added. The plasma was centrifuged at 40,000 rpm for 48 hrs. The upper dark-yellow fraction containing lipoproteins and the colorless buffer fraction were discarded leaving approx. 1-cm high buffer above the apparent plasma border. Portions of plasma obtained from one donor were pooled and dialyzed for 36 hrs against 4 L of PSB free of Ca^2+ and Mg^2+(MP Biomedicals, USA) in dialysis bags with 12-14 kDa pore sizes. The dialysis procedure was repeated twice with fresh buffer changed every 24 hrs. After the dialysis, the plasma was centrifuged at 25,000 rpm (Type 45Ti rotor, Beckman, USA) for 15 min at 4° C. The supernatant fraction was collected and lyophilized. The dry matter was dissolved in D2O in a final volume equal to the plasma volume before NaBr was added, lyophilized again, dissolved in the same volume of D2O, and stored in 1-mL aliquots at −20° C. before use.\n^1H-NMR spectroscopy was employed to analyze relative degradation of PIK7 (the claimed peptide) and MLC11-19 (the structural analogue) in human plasma. ^1H-NMR spectroscopy allows simultaneous direct monitoring the amounts of original full-length peptide and its fragments during the course of enzymatic hydrolysis (Isakova et al., 1986). Stability of a peptide, its degradation pathway(s) and a half-life estimate are available from a comparison of spectra obtained at different time points after the addition of a peptide to plasma. ^1H-NMR spectra were obtained using a WM-500 spectrometer (Bruker, Germany) at 37° C. Chemical shifts in ^1H-NMR spectra were measured relative to an internal standard (2,2-dimethyl-2-silapentane-5-sulfonate sodium salt). The signals were referenced by the double-resonance method. The resonances from peptide protons were identified by the differential spectroscopy method, i.e. the spectrum of blood plasma was subtracted from each spectrum obtained in the presence of peptide of interest. Peptide concentrations were 3 mg/ml.\nThese indicate the peptide N-terminus degradation. […] Therefore, the claimed peptide has an increased life-span in plasma that allows for long-lasting maintenance of its effective concentrations necessary to decrease the endothelial hyperpermeability under emergency conditions. Moreover, an increased life-time allows attaining the desired therapeutic effect with lower (as compared to homologues) peptide concentrations."}, "[8]": {"tested_on": "MLC phosphorylation in neutrophils", "conditions": "Chilcoat et al., 2008; cited from earlier work"}, "MLCK": {"target": "MLCK (Homo sapiens, UniProt Q15746)", "conditions": "in vitro; Sekridova et al., 2010 / RU 2402565; cited from earlier work"}}, "note": "Entries after “also recorded” stand apart in the source; their conditions may differ. Read-outs that look alike come from different tables or passages of the source. Non-standard residues stand in square brackets, D forms with d. Residues, ends and D or L forms follow the SMILES beside them. NMeR = CN[C@@H](CCCNC(=N)N)C(=O)O"}
{"compound": "CN[C@@H](CCCNC(=N)N)C(=O)N[C@@H](CCCCN)C(=O)N[C@@H](CCCCN)C(=O)N[C@@H](Cc1ccc(O)cc1)C(=O)N[C@@H](CCCCN)C(=O)N[C@@H](Cc1ccc(O)cc1)C(=O)N[C@@H](CCCNC(=N)N)C(=O)N[C@H](CCCNC(=N)N)C(=O)N[C@@H](CCCCN)C(N)=O", "note": "[PIK2, H—(N—Me)-Arg^1-Lys-Lys-Tyr-Lys-Tyr-Arg^7-D-Arg^8-Lys-NH2] (H-[NMeR]KKYKYR[dR]K-NH2)", "values": [{"measurement": "effect on thrombin-induced FITC-dextran hyperpermeability", "setting": "[1]", "value": "completely abolished the FITC-dextran hyperpermeability; also recorded: effectively abolished FITC-dextran hyperpermeability"}, {"measurement": "LD50 at 14 days", "setting": "[2]; both sexes, BALB/c, intraperitoneal, mice, Table 3", "value": 18, "unit": "mg/kg"}, {"measurement": "LD50", "setting": "[2]; after single intravenous injection (as printed in b7), read-out: LD50 in mice", "value": 18, "unit": "mg/kg"}, {"measurement": "lowest dose of the active substance that caused animal death", "setting": "BALB/c mice; BALB/c mice, single intraperitoneal injection, followed 14 days", "value": 27, "unit": "mg/kg"}, {"measurement": "signs after a toxic dose", "setting": "BALB/c mice; mice, single intraperitoneal injection of a toxic dose", "value": "movement retardation and death within the following 24 hrs"}, {"measurement": "LD50", "setting": "[3]", "value": "≤ 5", "unit": "mg/kg"}, {"measurement": "T1/2, half-life in human plasma in vitro", "setting": "[4]; Khapchaev et al., 2016", "value": ">540", "unit": "min"}, {"measurement": "stability, fold higher as compared to PIK1", "setting": "[4]; RU 2493164", "value": 4, "unit": "fold"}, {"measurement": "effect on thrombin-mediated endothelial hyperpermeability in vitro", "setting": "[5]; peptide 20 μM", "value": "completely abolished the thrombin-mediated endothelial hyperpermeability"}, {"measurement": "effect on endothelial hyperpermeability response and lung edema", "setting": "lung edema in rats", "value": "abrogation of the endothelial hyperpermeability response and lung edema in rats"}, {"measurement": "LD50 at 24 h", "setting": "in vivo", "value": 5, "unit": "mg/kg"}, {"measurement": "mortality", "setting": "Chinchilla rabbits; group of 4", "value": "two rabbits died on the 7th and 10th minute"}, {"measurement": "clinical signs after injection", "setting": "Chinchilla rabbits; second minute after injection", "value": "irregular breathing, shortness of breath, muscular stiffness, prone position with straighten extremities"}]}
{"compound": "H-D-Lys-Lys-Arg-Ala-Ala-Arg-NH2 (H-[dK]KRAAR-NH2; SMILES C[C@H](NC(=O)[C@H](C)NC(=O)[C@H](CCCNC(=N)N)NC(=O)[C@H](CCCCN)NC(=O)[C@H](N)CCCCN)C(=O)N[C@@H](CCCNC(=N)N)C(N)=O) [RLC 11-16 hexapeptide with N-terminal L-Lys substituted with D-Lys]", "values": [{"measurement": "IC50", "setting": "[6]", "value": 180, "unit": "µM"}]}
{"compound": "H-KKRAARATS-NH2 [MLC11-19, H-Lys-Lys-Arg-Ala-Ala-Arg-Ala-Thr-Ser-NH2]", "values": [{"measurement": "half-life", "setting": "[7]", "value": 32, "unit": "min"}, {"measurement": "effect on thrombin-induced FITC-dextran hyperpermeability", "setting": "[1]", "value": "completely abolished the FITC-dextran hyperpermeability; also recorded: effectively abolished FITC-dextran hyperpermeability"}, {"measurement": "effect on MLC phosphorylation in neutrophils", "setting": "[8]", "value": "decreases MLC phosphorylation in neutrophils"}]}
{"compound": "H-L-Lys-Lys-Arg-Ala-Ala-Arg-NH2 (H-KKRAAR-NH2)", "values": [{"measurement": "IC50", "setting": "[6]", "value": 22, "unit": "µM"}]}
{"compound": "H-MeArg^1-Lys-Lys-Tyr-Lys-Tyr-Arg-Arg-Lys-NH2 (H-[NMeR]KKYKYRRK-NH2) [PIK1, L-PIK modified at the N-terminal amino acid]", "values": [{"measurement": "inhibitory activity compared to L-PIK", "setting": "MLCK", "value": "comparable to that of L-PIK"}, {"measurement": "half-life in human plasma in vitro, fold higher as compared to L-PIK", "setting": "[4]; RU 2402565", "value": "~3", "unit": "fold"}, {"measurement": "inhibition of thrombin-mediated endothelial hyperpermeability", "setting": "[5]; peptide 100 μM", "value": 1.6, "unit": "fold"}]}
